Experimental data taken from US11679107B2 (Eisai R&D Management Co., Ltd., priority 2018, dated 2023).
Read-outs that look alike come from different tables or passages of the source.

Key:
[1] = tested on: Ad2 variant pre-mRNAs spliced in HeLa S3 nuclear extracts; experiment: In vitro splicing assay (IVS), RT-qPCR of spliced product; format: biochemical; details: for IC50: geometric mean
Summary of the method: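 Read-out is one-step TaqMan RT-qPCR of spliced Ad2 mRNA with Ftz as reference, normalized to DMSO and fit by non-linear regression. Reactions held HeLa S3 nuclear extract, 2 ng Ad2-derived pre-mRNA and test compound, with 15 min preincubation. Splicing was started with ATP-containing activation buffer and run 90 min at 30 °C.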

SF3b complexes = target: T1, SF3b complexes (Homo sapiens, UniProt O75533+Q7RTV0); experiment: Scintillation proximity assay (SPA) with [3H]-labelled pladienolide probe; format: binding; details: SF3B1 (WT); geometric mean; read-out: SPA-ATS GMean IC50 (nM) SF3B1 (WT)
T1 construct: endogenous in cells; host or cells: Nuclear extracts; A HeLa S3 extract preparation is described for the in vitro splicing assay
Summary of the method: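 SF3b complexes captured from nuclear extracts on anti-SF3B1 antibody SPA beads; test compounds pre-incubated 30 min before 2.5 nM [3H]-pladienolide probe added, then 30 min incubation. Bound probe read by scintillation; values from non-linear regression of concentration–response curves.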

[2] = tested on: Panc 05.04 cells (SF3b K700E mutant); experiment: Cell proliferation and viability, CellTiter-Glo, 72 hours; format: cell-based; details: for GI50: geometric mean
Summary of the method: (§1)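 ATP luminescence (CellTiter-Glo) was measured 72 h after treatment with compound at 10 μM–100 pM (11 points, half-log) in 0.1% DMSO. The Panc line was grown in RPMI-1640 plus insulin and 15% FBS, the other in 10% FBS. Data were normalised to time zero and vehicle controls, where −100% is cidal and 0% static.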

[3] = tested on: NCI-H1568 cells (high MCL1); experiment: as above; format: cell-based; details: for GI50: geometric mean
Summary of the method: as §1

[4] = Ad2.1 pre-mRNA substrate, read-out: qPCR-IVS-ATS GMean IC50 (nM) Ad2.1
[5] = Ad2.2 pre-mRNA substrate, read-out: qPCR-IVS-ATS GMean IC50 (nM) Ad2.2
[6] = PANC0504.1 cells, 72 h, −100% cidal, 0% static, 100% maximal growth
[7] = Panc 05.04, 72 h, read-out: CTGlo-ATS GMean GI50 (nM) 72 h PANC0504.1, PANC0504.1 cells, 72 h
[8] = NCI-H1568, 72 h, read-out: CTGlo-ATS GMean GI50 (nM) 72 h NCIH1568.1, NCIH1568.1 cells, 72 h
[9] = NCIH1568.1 cells, 72 h, −100% cidal, 0% static, 100% maximal growth
[10] = Panc 05.04, read-out: CTGlo-ATS GMean GI50 (nM) 72 h PANC0504.1, PANC0504.1 cells, 72 h
[11] = NCI-H1568, read-out: CTGlo-ATS GMean GI50 (nM) 72 h NCIH1568.1, NCIH1568.1 cells, 72 h

| SMILES | IC50 [1, 4] | IC50 [1, 5] | IC50 (SF3b complexes) | CTGlo-ATS Mean MinResponse % 72 h PANC0504.1 [2, 6] | GI50 [2, 7] | GI50 [3, 8] | CTGlo-ATS Mean MinResponse % 72 h NCIH1568.1 [3, 9] | GI50 [2, 10] | GI50 [3, 11] | Ratio Ad2.1/2.2 ([1]; ratio of IVS IC50 Ad2.1 to Ad2.2) | CTGlo-ATS Mean MinResponse % 72 h PANC0504.1 ([2]; 72 h, PANC0504.1, -100% = cidal, 0% = static, 100% = uninhibited growth) | GI50 ([2]; Panc 05.04, read-out: CTGlo-ATS GMean GI50 (nM) 72 h PANC0504.1, 72 h, PANC0504.1) | CTGlo-ATS Mean MinResponse % 72 h NCIH1568.1 ([3]; 72 h, NCIH1568.1, -100% = cidal, 0% = static, 100% = uninhibited growth) | GI50 ([3]; NCI-H1568, read-out: CTGlo-ATS GMean GI50 (nM) 72 h NCIH1568.1, 72 h, NCIH1568.1) |
| --- | --- | --- | --- | --- | --- | --- | --- | --- | --- | --- | --- | --- | --- | --- |
| C/C(=C\c1cc(F)cc(N2CCC[C@H]2CO)c1)[C@H]1OC(=O)C[C@H](O)CC[C@H](C)[C@@H](OC(=O)N2CCN(C)CC2)/C=C/[C@@H]1C [Compound 15] | 21.6 nM | 12.3 nM | 6.33 nM | −80.816% | 6.23 nM | 7.58 nM | −74.931% |  |  |  |  |  |  |  |
| C/C(=C\c1cc(F)c2c(c1)nnn2CC1CC1)[C@H]1OC(=O)C[C@H](O)CC[C@H](C)[C@@H](OC(=O)N2CCN(C)CC2)/C=C/[C@@H]1C [Compound 139] | > 25000 nM | 93.2 nM | 4.32 nM | −21.195% |  |  | −61.022% | 240 nM | 142 nM |  |  |  |  |  |
| C/C(=C\c1cc(F)cc(N2CC[C@@H](O)C2)c1)[C@H]1OC(=O)C[C@H](O)CC[C@H](C)[C@@H](OC(=O)N2CCN(C)CC2)/C=C/[C@@H]1C [Compound 34] | 56.5 nM | 26.9 nM | 3.18 nM | −85.656% | 14 nM | 9.46 nM | −55.438% |  |  |  |  |  |  |  |
| C/C(=C\c1cccc(S(=O)(=O)N2CCN(C=O)CC2)c1)[C@H]1OC(=O)C[C@H](O)CC[C@H](C)[C@@H](OC(=O)N2CCN(C)CC2)/C=C/[C@@H]1C [Compound 94] | 5570 nM | 37.5 nM | 7.48 nM | −94.671% |  |  | −40.948% | 30.4 nM | 35.5 nM |  |  |  |  |  |
| C/C(=C\c1cc(F)cc(N2CCOC(C)C2)c1)[C@H]1OC(=O)C[C@H](O)CC[C@H](C)[C@@H](OC(=O)N2CCN(C)CC2)/C=C/[C@@H]1C (stereo partly shown) [Compound 70] | 17.6 nM | 16.5 nM | 1.55 nM | −83.969% | 5.94 nM | 3.37 nM | −77.042% |  |  |  |  |  |  |  |
| C/C(=C\c1cc(F)cc(N(C)C2CCN(S(C)(=O)=O)CC2)c1)[C@H]1OC(=O)C[C@H](O)CC[C@H](C)[C@@H](OC(=O)N2CCN(C)CC2)/C=C/[C@@H]1C [Compound 174] | 13.1 nM | 10.7 nM | 3.14 nM | −80.529% |  |  | −92.525% | 6.04 nM | 3.86 nM |  |  |  |  |  |
| C/C(=C\c1cccc(N2CCN(C)CC2)c1)[C@H]1OC(=O)C[C@H](O)CC[C@H](C)[C@@H](OC(=O)N2CCN(C)CC2)/C=C/[C@@H]1C [Compound 2] | 29.3 nM | 24.8 nM | 14.7 nM | −76.626% |  |  | −70.665% | 30.3 nM | 40.6 nM |  |  |  |  |  |
| C/C(=C\c1cc(F)cc(N2CCC(=O)C2)c1)[C@H]1OC(=O)C[C@H](O)CC[C@H](C)[C@@H](OC(=O)N2CCN(C)CC2)/C=C/[C@@H]1C [Compound 35] | 913 nM | 27.1 nM | 4.78 nM | −87.702% |  |  | −46.227% | 53.2 nM | 107 nM |  |  |  |  |  |
| C/C(=C\c1cc(F)cc(N2CCOCC2)c1)[C@H]1OC(=O)C[C@H](O)CC[C@H](C)[C@@H](OC(=O)N2CCCC(N(C)C)C2)/C=C/[C@@H]1C (stereo partly shown) [Compound 40] | 55.9 nM | 28.1 nM | 3.98 nM | −82.881% |  |  | −72.259% | 7.75 nM | 13.3 nM |  |  |  |  |  |
| COCC(=O)N1CCN(c2cc(F)cc(/C=C(\C)[C@H]3OC(=O)C[C@H](O)CC[C@H](C)[C@@H](OC(=O)N4CCN(C)CC4)/C=C/[C@@H]3C)c2)CC1 [Compound 108] | 16.8 nM | 14.3 nM | 2.03 nM | −82.618% |  |  | −79.118% | 3.31 nM | 2.47 nM |  |  |  |  |  |
| C/C(=C\c1ccc2ccnc(O)c2c1)[C@H]1OC(=O)C[C@H](O)CC[C@H](C)[C@@H](OC(=O)N2CCN(C)CC2)/C=C/[C@@H]1C [Compound 127] | > 25000 nM | 452 nM | 19.1 nM | 11.995% | 1070 nM | 835 nM | −18.734% |  |  |  |  |  |  |  |
| C/C(=C\c1cc(F)c2nn(C3CCOCC3)nc2c1)[C@H]1OC(=O)C[C@H](O)CC[C@H](C)[C@@H](OC(=O)N2CCN(C)CC2)/C=C/[C@@H]1C [Compound 141] | > 25000 nM | 61.3 nM | 13 nM | −94.865% |  |  | −63.745% | 72.4 nM | 48.8 nM |  |  |  |  |  |
| C/C(=C\c1cccc(S(=O)(=O)N2CC(F)(F)C2)c1)[C@H]1OC(=O)C[C@H](O)CC[C@H](C)[C@@H](OC(=O)N2CCN(C)CC2)/C=C/[C@@H]1C [Compound 206, [(2S,3S,4E,6R,7S,10R)-2-[(E)-1-[3-(3,3-difluoroazetidin-1-yl)sulfonylphenyl]prop-1-en-2-yl]-10-hydroxy-3,7-dimethyl-12-oxo-1-oxacyclododec-4-en-6-yl] 4-methylpiperazine-1-carboxylate] | > 25000 nM | 113 nM | 1.81 nM |  |  |  |  |  |  | 221.630 | −83.659% | 62.3 nM | −57.585% | 72.2 nM |
| C/C(=C\c1ccc2c(F)nn(CC3CC3)c2c1)[C@H]1OC(=O)C[C@H](O)CC[C@H](C)[C@@H](OC(=O)N2CCN(C)CC2)/C=C/[C@@H]1C [Compound 133] | 1670 nM | 92.5 nM | 6.99 nM | −94.957% |  |  | −69.167% | 25.6 nM | 17.7 nM |  |  |  |  |  |
| C/C(=C\c1cccc2[nH]ncc12)[C@H]1OC(=O)C[C@H](O)CC[C@H](C)[C@@H](OC(=O)N2CCN(C)CC2)/C=C/[C@@H]1C [Compound 5] | 1500 nM | 94.7 nM | 6.61 nM | −17.631% |  |  | −38.293% | 47.2 nM | 59.7 nM |  |  |  |  |  |
